From US20220281902A1, “MIT[…] IMPROVE METABOLIC SYNDROME DURING AGING” (The Board of Trustees of the Leland Stanford Junior …, priority 2019, published 2022)

Tests used:
[1] = system: reactive oxygen species (ROS); test: Serum ROS generation evaluation; type: in vivo, mouse; conditions: blood plasma, after 14 months of treatment
HeLa cells = test: In vivo cervical cancer mouse model; design: species or system mice
Procedure: To investigate the effects of an example compound on a cervical cancer mouse model, HeLa cells were introduced to the back of mice (five groups, 5-6 mice in each group). After the tumor volume reached about 200 mm^3, compound HG1a-1 solution (5, 20, 50 mg/kg) was dosed by intraperitoneal (IP) injection, every second day for ten days. Control mice were dosed with Saline and Taxol solution (PTX, 20 mg/kg). Tumor weight and volume were measured.

[2] = system: TNF-α, IL-6, CRP, leptin receptor, CD68 transcripts; test: qPCR of inflammatory factors, macrophage pan marker and leptin receptor; type: in vivo, mouse
Procedure: (§1) Gene expression & RT qPCR Analyses. Total RNA was isolated using a commercially available kit (OMEGA bio-tek, R6812-02) according to the manufacturer's instructions. cDNA was generated using the PrimeScript RT reagent kit (TAKARA, RR047A). Gene expression were determined by qPCR as described in the product manual. The analysis was evaluated by Bio-Rad Real-Time System (CFX Connect™).
(§2) RNAs from 10 mice (5 treated and 5 Ctrl.) VF fat or livers were isolated by using omega Bio-Tek reagents, and cDNA was transcribed by (TAKARA). qPCR was then performed by using iQ SYBR Green mastermix bioscience on a CFX96 Real-Time System/C1000 Thermal Cycler (Bio-Rad).

[3] = system: ASC1, Wdnm1-like, FGF-21, PGC-1α transcripts; test: qPCR of adipogenesis regulators and white fat inducing transcripts in visceral fat; type: in vivo, mouse
Procedure: as §1, §2

[4] = Long-term oral administration in drinking water, tolerability; type: in vivo, C57BL/6 mice
Procedure: Animal experimentation. Male C57BL/6 mice (Shanghai SLAC Laboratory animal Co. Ltd) were group-housed in a barrier facility with 12-hr light/12-hr dark cycles. All mice received a regular chow diet ad libitum (PicoLab 5053 Rodent Diet 20; Lab Diets) except for HFD (40-60%) and CR models. The compound was then administered in drinking water ad libitum at either 90-100 or 100-120 mg/kg/day, based on the previously measured water consumption.
The C57BL/6 mice were maintained on a standard purified mouse diet (PicoLab 5053 Rodent Diet 20; Lab Diets) until they reached 2 months of age when the treatments started. […] Body weights were measured weekly at the same time each week. Food and water intake were measured once every month for 3-6 consecutive days at the same time each month. Water consumption was measured for 2 weeks prior to the start of administration. Compound was generated and modified for better permeability in to mitochondria, evaluated by HPLC, was 96%-97%. […] Aliquots were collected from each batch and measured by HPLC to confirm stability of the compound. […] Rectal body temperature was measured monthly, as described previously. Whole blood samples, and histopathology were analyzed after 14 months of treatment. […]

[5] = Chronic 10-week treatment of T2DM mice; type: in vivo
Procedure: Next, in a biased investigation on impact of partial inhibition as a potential anti-diabetic treatment, two groups of type 2 diabetes mellitus (T2DM) and healthy control mice were prepared. Four weeks after the verification of T2DM, diabetic mice began to receive the exemplary subject compound. The chronic treatment phase lasted for 10 weeks.

[6] = 5, 20 and 50 mg/kg IP, after 10 days
[7] = visceral fat, 14 months old mice

In the case of Cc1ncsc1CCOC(=O)C[P+](c1ccccc1)(c1ccccc1)c1ccccc1.[Br-] [HG1a-1, (2-(2-(4-Methylthiazol-5-yl)Ethoxy)-2-Oxoethyl) Triphenylphosphonium Bromide], the “drop of ROS production” value [1] is reported as ~4 fold, the tumor size (HeLa cells; 5, 20, 50 mg/kg IP every second day for ten days, with increasing dose) is reported as “decreased” and the “tumor volume relative to saline control” value (HeLa cells; [6]) is reported as “decreased”. For the same compound, the “tumor weight relative to saline control” value (HeLa cells; [6]) was “decreased”, the “leptin receptor transcript abundance increase” value ([2]; mouse livers) was 2 fold and the “decline in abundance of CD68” value ([2]; visceral fat) was 5 fold. The CRP transcript [2, 7] was “trivial changes”, the IL-6 transcript [2, 7] was “declined markedly” and the TNF-α transcript [2, 7] was “declined markedly”. The “ASC1 transcript decrease vs control” value ([3]; 14 months of treatment) was > 9 fold, the FGF-21 transcript ([3]; 14 months of treatment) was “remained unchanged” and the “Wdnm1-like transcript decrease vs control” value ([3]; 14 months of treatment) was 30 fold. For the same compound, the PGC-1α transcript ([3]; aged mice) was “increased”, the “tolerability of long-term regulated mitochondrial inhibition” value ([4]; 18 month long treatment) was “well-tolerated without any deleterious effect” and the “mortality due to oral administration” value ([4]; oral, 18-20 months) was “no mice died”. The “drop of blood glucose level” value ([5]; after one week (23 mM at time 0)) was 20%, the “drop of blood glucose level” value ([5]; by week 3, reached healthy controls) was 39% and the insulin elevations ([5]; week 3) was “negligible”.
